Where two headings read alike, the source gives them in different places.

In data set [1] the test system is chick chorioallantoic membrane (CAM) vasculature.
A further data set relates to collagenase (MMP-1) mRNA. Nature of the data set: IL-1 induced collagenase mRNA expression in chondrocytes (Northern blot). Particulars: pre-incubation 6 hours, IL-1 20 ng/ml 18 hours. The format is cell-based, calf. The protocol: Total RNA was isolated, and the MMP-1 mRNA levels were determined by Northern blot analysis. The blots were subsequently stripped and reprobed with ^32P-radiolabeled rat GAPDH cDNA, which was used as a housekeeping gene. The results shown are representative of four independent experiments. Quantitation of collagenase-1 and stromelysin-expression mRNA levels. The MMP-1 and MMP-3 expression levels were normalized with GAPDH.
Primary chondrocyte cultures were freshly isolated from calf cartilage. The cells were plated at 2.5×10^6 per ml in 100×20 mm culture dishes and incubated in Ham's F12 medium containing 5% FBS overnight at 37° C. […] IL-1 (20 ng/ml) was then added to each plate and the plates incubated for an additional 18 hours. Total RNA was isolated by the acidified guanidine isothiocyanate method and subjected to electrophoresis on a denatured gel. Denatured RNA samples (15 μg) were analyzed by gel electrophoresis in a 1% denatured gel, transferred to a nylon membrane and hydridized with the ^32P-labeled collagenase cDNA probe. ^32P-labeled glyceraldehyde phosphate […] (GAPDH) cDNA as an internal standard to ensure roughly equal loading. The exposed films were scanned and quantitatively analyzed with ImageQuant.

A further data set relates to aggrecan mRNA. In words: Expression of proteoglycan (aggrecan) in chondrocytes. The format is cell-based, calf. Particulars: all concentrations evaluated (10^−7 M to 10^−4 M). The protocol:
Primary chondrocyte cultures were freshly isolated from calf cartilage. The cells were plated at 2.5×10^6 per ml in 100×20 mm culture dishes and incubated in Ham's F12 medium containing 5% FBS overnight at 37° C. The cells were starved in serum-free medium overnight and then treated with anti-microtubule agents at various concentrations (10^−7 M, 10^−6 M, 10^−5 M and 10^−4 M) for 6 hours. […] Total RNA was isolated by the acidified guanidine isothiocyanate method and subjected to electrophoresis on a denatured gel. […] The exposed films were scanned and quantitatively analyzed with ImageQuant.

Another data set concerns synoviocytes. Nature of the data set: Proliferation assay (MTT). The format is cell-based. The settings on record: 24-hour exposure. The protocol:
On day one, 5-10×10^4 synoviocytes were plated per well (96-well plate). Column #1 was kept free of cells (blank). On day 2, the plate was flicked to discard the medium and 200 μl of medium containing various concentrations of drug was added. […] There was no drug added to columns #1 and #2 (blank and untreated control, respectively). The medium containing the drug was discarded and 200 μl of fresh complete medium was added. The cells were then left to grow for an additional 3 to 4 days. On day five, 20 μl of dimethylthiazol diphenyltetrazolium bromide salt (MTT) (5 mg/ml PBS) was added and allowed to incubate for 4 hours at 37° C. The medium was decanted and 200 μl of DMSO was added.
The data were expressed as the % of survival which was obtained by dividing the number of cells remaining after treatment by the number of cells in the untreated control column #2 (the number of cells was obtained from a standard done prior to the assay).

The next data set concerns neutrophils. In words: Neutrophil chemiluminescence assay (opsonized CPPD crystals or zymosan). The format is cell-based, human. The protocol: All experiments that studied neutrophil responses to crystals or zymosan in the presence of paclitaxel were performed using plasma opsonized CPPD or zymosan. Opsonization of crystals or zymosan was done with 50% heparinized plasma at a concentration of 75 mg of CPPD or 12 mg of zymosan per ml of 50% plasma Crystals or zymosan were incubated with plasma for 30 minutes at 37° C. and then washed in excess HBSS.
Neutrophil viability and purity was always greater than 90%.
A stock solution of LY290181 at 100 μM in HBSS was freshly prepared.
All chemiluminescence studies were performed at a cell concentration of 5,000,000 cells/ml in HBSS with CPPD (50 mg/ml). In all experiments 0.5 ml of cells was added to 25 mg of CPPD or 0.5 mg of zymosan in 1.5 ml capped Eppendorf tubes. 10 μl of luminol dissolved in 25% DMSO in HBSS was added to a final concentration of 1 μM and the samples were mixed to initiate neutrophil activation by the crystals or zymosan. Chemiluminescence was monitored using an LKB Luminometer (Model 1250) at 37° C. for 20 minutes with shaking immediately prior to measurements to resuspend the crystals or zymosan. Control tubes contained cells, drug and luminol (crystals absent).

Data set [2] concerns collagen-induced arthritis. Nature of the data set: CIA rat model, intraperitoneal micellar paclitaxel. The format is in vivo. The protocol:
As a comparison with standard therapy, a third group received methotrexate at 0.3 mg/kg i.p. (human equivalent dose) on days 0, 5 and 10 post-arthritis onset. […] The control (group 5) and experimental animals were evaluated for disease severity both clinically and radiographically by individuals blinded to treatment groups.
The severity of inflammation for each limb was evaluated daily and scored based on standardized levels of swelling and periarticular erythema (0 being normal and 4 severe). Animals were evaluated radiographically on day 28 of the experiment. […] Histological assessment of the joints was completed at the conclusion of the experiment.

In the case of `CCc1occc(=O)c1[O-].CCc1occc(=O)c1[O-].[O-2].[V+4]` [BEOV], the Inhibition/n entry in data set [1] (PCL paste (3 mg), 10%) is listed as “too toxic”.
Take `Cc1occc(=O)c1[O-].Cc1occc(=O)c1[O-].[O]=[V+2]` [BMOV]: the Inhibition/n result is recorded as “too toxic” in data set [1] (PCL paste (3 mg), 10%); “too toxic” in data set [1] (PCL paste (3 mg), 25%); “too toxic” in data set [1] (PCL paste (3 mg), 35%).
Regarding `COC(=O)/C=C/c1cc(O)ccc1O` [MDHC], the Inhibition/n in data set [1] (PCL paste (3 mg), 20%) was 0/8.
As for `[2H]O[2H]` [deuterium oxide], the “prevented IL-1-induced collagenase expression at concentrations as low as” value in the data set with collagenase (MMP-1) mRNA amounted to 100 nM. For the same compound, the expression of aggrecan entry with aggrecan mRNA is on record as “did not affect the expression of aggrecan”.
As to `C/C(=C\c1csc(C)n1)[C@@H]1C[C@@H]2O[C@]2(C)CCC[C@H](C)[C@H](O)[C@@H](C)C(=O)C(C)(C)[C@@H](O)CC(=O)O1` [epothilone B], the “prevented IL-1-induced collagenase expression at concentrations as low as” value with collagenase (MMP-1) mRNA came out at 100 nM. Moreover, in the data set on aggrecan mRNA, the expression of aggrecan entry is recorded as “did not affect the expression of aggrecan”. In the data set with synoviocytes, this compound returned an IC50 of about 0.045 µM.
For the compound `CCOC(=O)CN` [glycine ethyl ester], the “prevented IL-1-induced collagenase expression at concentrations as low as” value in the data set with collagenase (MMP-1) mRNA stood at 100 nM. The “inhibition of plasma opsonized zymosan-induced neutrophil chemiluminescence” value in the data set with neutrophils (0.5 to 20 mM) is “strong inhibition”. Moreover, in the data set with aggrecan mRNA, the expression of aggrecan result is “did not affect the expression of aggrecan”.
With `CC(O)CC(C)(C)O` (stereo not shown) [hexylene glycol, 2-methyl-2,4-pentanediol], in the data set on collagenase (MMP-1) mRNA, the “prevented IL-1-induced collagenase expression at concentrations as low as” value was found to be 100 nM. The expression of aggrecan result with aggrecan mRNA is reported as “did not affect the expression of aggrecan”.
Take `O=C(O)c1cc(NCc2cc(O)ccc2O)ccc1O` [lavendustine-c]: the Inhibition/n in data set [1] (PCL paste (3 mg), 10%) is recorded as 0/14; in data set [1] (PCL paste (3 mg), 20%) it was 0/10.
As to `CN(Cc1cnc2nc(N)nc(N)c2n1)c1ccc(C(=O)N[C@@H](CCC(=O)O)C(=O)O)cc1` [methotrexate], in data set [2] (0.3 mg/kg), the “Percentage of Animals with Erosions” value is given as 76% and the “Radiographic Score” value is recorded as 4.25 ± 0.64. Besides, in data set [2] (0.3 mg/kg i.p.), the “Antibody to Collagenase II” value worked out at 0.182 ± 0.0034, the “Arthritic Index on Day 10” value is recorded as 5.4 ± 0.6 and the “Maximum Mean Arthritis Score” value was 5.7 ± 0.6.
In the case of `[O]=[V]([O-])([O-])[O-]` [vanadate], the Inhibition/n in data set [1] (in vivo) is given as 0/5.
Same read-out and setting: with `O=S(=O)([O-])[O-].[O]=[V+2]` [vanadyl sulphate] the figure was 0/3.
Take `CC[C@]1(O)C[C@H]2CN(CCc3c([nH]c4ccccc34)[C@@](C(=O)OC)(c3cc4c(cc3OC)N(C=O)[C@H]3[C@@](O)(C(=O)OC)[C@H](OC(C)=O)[C@]5(CC)C=CCN6CC[C@]43[C@@H]65)C2)C1` [vincristine]: the Inhibition/n entry was “too toxic” in data set [1] (PCL paste (3 mg), 1%); “too toxic” in data set [1] (PCL paste (3 mg), 2%); “too toxic” in data set [1] (methylcellulose (10 ul), 1 ug); “too toxic” in data set [1] (methylcellulose (10 ul), 9 ug). In data set [1] (PCL paste, concentrations exceeding 2%), the “toxicity to the embryo” value is listed as “unexpected embryonic death occurred”.
In the case of aluminum fluoride, the “prevented IL-1-induced collagenase expression at concentrations as low as” value with collagenase (MMP-1) mRNA amounted to 100 nM. Further, the “inhibition of plasma opsonized zymosan-induced neutrophil chemiluminescence” value in the data set with neutrophils (5 to 100 mM) was “strong inhibition”. In addition, the expression of aggrecan entry with aggrecan mRNA is “did not affect the expression of aggrecan”. The IC50 in the data set on synoviocytes was about 32 µM.
In the case of baccatin, the Inhibition/n in data set [1] (methylcellulose (5 ul), 5 ug) is listed as 4/7; in data set [1] (paste (2 mg), 2 ug) it was 2/3.
Consider “ethylene glycol bis-(succinimidylsuccinate)”, for which the “prevented IL-1-induced collagenase expression at concentrations as low as” value in the data set with collagenase (MMP-1) mRNA worked out at 100 nM. In addition, the expression of aggrecan result with aggrecan mRNA is on record as “did not affect the expression of aggrecan”.
For the compound herbimysin, the Inhibition/n is 3/4 in data set [1] (PCL paste (3 mg), 2%) and 1/1 in data set [1] (in vivo).
In the case of protamine sulphate, the Inhibition/n in data set [1] (methylcellulose (10 ul), 100 ul ^) is given as 1/10.

A word on the IC50: it is the concentration needed to halve the response being measured. A low value points to inhibition by little substance.

The values are drawn from patent US6689803B2, “Compositions and methods for treating surgical adhesions” (Angiotech Pharmaceuticals, Inc., priority 1996, dated 2004).
